Non-standard residues stand in square brackets, D forms with d. Residues, ends and D or L forms follow the SMILES beside them. pS = N[C@@H](COP(=O)(O)O)C(=O)O
Key:
KPNA4 ARM Major = target: T1, KPNA4 ARM Major (Homo sapiens, UniProt O00629); test: FP displacement assay, KPNA4 ARM major pocket; assay type: binding; details: for IC50: Fig 3E, KPNA4 ARM major, technical triplicates, read-out: IC50 values of displacement curves, with SEM; for Kd: major pocket probe FITC-MYC 5 nM, 50 mM sodium phosphate pH 7.4, room temperature, at least three technical replicates, read-out: KD values ± SEM
T1 construct: 60-487; GST (cleaved yes); made in house; host or cells: Escherichia coli BL21-Gold(DE3)
T1 sequence (O00629 60-487): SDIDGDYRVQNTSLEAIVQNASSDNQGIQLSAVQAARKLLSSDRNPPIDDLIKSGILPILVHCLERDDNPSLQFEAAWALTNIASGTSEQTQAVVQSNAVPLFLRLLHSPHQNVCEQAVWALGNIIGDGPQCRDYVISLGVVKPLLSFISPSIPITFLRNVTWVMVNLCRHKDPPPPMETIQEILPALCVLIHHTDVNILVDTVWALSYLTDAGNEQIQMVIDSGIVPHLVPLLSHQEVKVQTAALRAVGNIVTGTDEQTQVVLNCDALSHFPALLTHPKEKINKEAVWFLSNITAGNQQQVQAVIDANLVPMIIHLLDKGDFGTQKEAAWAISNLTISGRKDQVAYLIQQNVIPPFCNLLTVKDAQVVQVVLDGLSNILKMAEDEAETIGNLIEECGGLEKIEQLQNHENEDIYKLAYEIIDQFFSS
Description: (§1) FP experiments were performed as described previously (Kliche et al, [2021]). Shortly, in order to monitor the binding event, FITC‐labelled peptides were used (excitation 495 nm, emission: 535 nm) and the FP signal was recorded in mP on a SpectraMax iD5 Multi‐Mode Microplate Reader (Molecular Devices) by measuring the emitted light in two angels. The measurements were performed at room temperature and prepared in nonbinding black half area 96‐well microplates (Corning®; 50 μl/well). For measuring direct binding, that is saturation curves, a 1:1 dilution series of protein domain (25 μl/well) was generated in 50 mM sodium phosphate buffer pH 7.4 and the measurement performed with 5 nM FITC‐labelled peptide (25 μl/well). The buffer‐corrected values were subsequently plotted with PRISM and fitted to the quadratic equation (Gianni et al, [2005]).
(§2) The 1:1 dilution series in this experiment was performed with the unlabelled peptide in 50 mM sodium phosphate buffer pH 7.4, so that each well‐contained unlabelled peptide (25 μl) at a certain concentration and pre‐formed complex (25 μl). The KD values of this indirectly monitored binding event were calculated as described previously (Nikolovska‐Coleska et al, [2004]). All measurements were at least in technical triplicates as well as biological duplicates when indicated. An amplitude shift between repeat measurements in the displacement experiments was occasionally observed due to variations in the protein preparations. If that was the case, the “active” protein concentration was back‐calculated according to the quadratic equation from the saturation curves performed in parallel. By comparing the active protein concentrations in the complex between different protein preparations, the amplitude was normalised.

KPNA4 ARM minor = target: T2, KPNA4 ARM minor (Homo sapiens, UniProt O00629); test: FP displacement assay, KPNA4 ARM minor pocket; assay type: binding; details: for IC50: Fig 3E, KPNA4 ARM minor, technical triplicates, read-out: IC50 values of displacement curves, with SEM; for Kd: minor pocket probe FITC-NCOR2 5 nM, 50 mM sodium phosphate pH 7.4, room temperature, at least three technical replicates, read-out: KD values ± SEM
T2 construct: 60-487; GST (cleaved yes); made in house; host or cells: Escherichia coli BL21-Gold(DE3)
T2 sequence (O00629 60-487): as above
Description: as §1, §2

KPNA4 ARM = test: Phosphomimetic ProP-PD selection, KPNA4 ARM; assay type: binding, human; details: phosphomimetic enrichment score of the wild-type/phosphomimetic (E) pair at the phosphosite, PM_HD2 phage selection; same score in the major and minor pocket; P-value in brackets not taken

**Q.** For `CC(=O)N[C@@H](CC(N)=O)C(=O)N[C@@H](Cc1ccc(O)cc1)C(=O)N[C@@H](C)C(=O)N1CCC[C@H]1C(=O)N1CCC[C@H]1C(=O)N[C@H](C(=O)N[C@@H](CCCCN)C(=O)N[C@@H](CCCNC(=N)N)C(=O)N[C@@H](CCC(=O)O)C(=O)N[C@@H](CCCNC(=N)N)C(=O)N[C@H](C(=O)N[C@@H](COP(=O)(O)O)C(=O)N[C@@H](CO)C(=O)N[C@@H](CC(C)C)C(=O)N[C@H](C(=O)N[C@@H](CCC(N)=O)C(N)=O)[C@@H](C)O)[C@@H](C)O)C(C)C` [RANBP3_114–129 pS (p + 6)] (Ac-NYAPPVKRERT[pS]SLTQ-NH2), which IC50 (KPNA4 ARM Major) is on record?
**A.** 2 ± 0.5 µM

**Q.** And the Kd (KPNA4 ARM Major)?
**A.** 0.22 ± 0.03 µM

**Q.** And the IC50 (KPNA4 ARM minor)?
**A.** 98 ± 7 µM

**Q.** What about the Kd (KPNA4 ARM minor) of the same molecule?
**A.** 20 ± 1 µM

**Q.** For `CC(=O)N[C@@H](CC(N)=O)C(=O)N[C@@H](Cc1ccc(O)cc1)C(=O)N[C@@H](C)C(=O)N1CCC[C@H]1C(=O)N1CCC[C@H]1C(=O)N[C@H](C(=O)N[C@@H](CCCCN)C(=O)N[C@@H](CCCNC(=N)N)C(=O)N[C@@H](CCC(=O)O)C(=O)N[C@@H](CCCNC(=N)N)C(=O)N[C@H](C(=O)N[C@@H](CCC(=O)O)C(=O)N[C@@H](CO)C(=O)N[C@@H](CC(C)C)C(=O)N[C@H](C(=O)N[C@@H](CCC(N)=O)C(N)=O)[C@@H](C)O)[C@@H](C)O)C(C)C` [RANBP3_114–129 E (p + 6)] (Ac-NYAPPVKRERTESLTQ-NH2), which IC50 (KPNA4 ARM Major) is on record?
**A.** 1.3 ± 0.1 µM

**Q.** And the Kd (KPNA4 ARM Major)?
**A.** 0.14 ± 0.01 µM

**Q.** And the IC50 (KPNA4 ARM minor)?
**A.** 385 ± 220 µM

**Q.** And the Kd (KPNA4 ARM minor)?
**A.** 80 ± 27 µM

**Q.** And the PES (KPNA4 ARM)?
**A.** −3.1 (0.077)

Source: paper PMC10333884, “Large‐scale phosphomimetic screening identifies phospho‐modulated motif‐based protein interactions” (Molecular Systems Biology, 2023)
